In patent US20070166547A1, “Use of a layer consisting of hydrophobic linear, or two-dimensional polycyclic aromatics as a barrier layer or an encapsulation and electric components constructed with a layer of this type and comprising organic polymers” (priority 2003, published 2007):

Test: Chronic toxicity, rectal suppositories: indexes of urine
Settings: rats, 1 month after the administration
Description: The experiments were conducted on inbred rats. The experimental animals were selected in groups by a method of random sampling taking into account the body mass as a determining index; 24 males or 24 females for one preparation from compounds 2, 15, 23, 34, 37 investigated in one dose.
Two doses of preparations used in the experiments: 50 mg/kg and 500 mg/kg. Before the administration, the suppositories were softened by heating in a glass water bath at a temperature of 38-39° C., the soft mass was collected in tuberculin syringe in a volume of 1 ml, a needle with oliva was attached to the syringe, and the preparatory mass was introduced into the rectum of the animal for a depth of 1.5-2.0 cm. The animals of the control group were administered with sterile medical liquid paraffin in a volume corresponding to the volume of the investigated suppository. A complete course of administration of drugs to the animals was two months. A complex of laboratory diagnostic investigations was carried out one month after the beginning of the administration of the preparation to the animal—in a middle of the course (8 animals), two months after ending the course (8 animals) and three months after ending the recovery period of one month (8 animals). The mass of the body of the rats in the first month of administration of the preparation was determined weekly, and then once in two weeks. On the basis of the dynamics of an index of the mass of the animal body, the volume of preparation being administered was corrected taking into account the test dose.

For `Nc1ccnc2c(=O)n([C@@H]3O[C@H](CO)[C@@H](O)[C@H]3O)[nH]c(=O)c12` [Compound 2, 4-amino-7-(β-D-ribofuranosile)pyrido[2,3-d]-6H-pyridazine-5,8-dione], the “Bilirubin (index of urine)” value (dose 50 mg/kg) was <5 Mkmol/l, the “Glucose (index of urine)” value (dose 50 mg/kg) was <5 mmol/L and the “Ketone bodies (index of urine)” value (dose 50 mg/kg) was <1 mmol/L. The “Potassium (index of urine)” value (dose 50 mg/kg) was 5.78 ± 1.7 g/L, the “Protein (index of urine)” value (dose 50 mg/kg) was 0.69 ± 0.33 g/L and the “Sodium (index of urine)” value (dose 50 mg/kg) was 1.7 ± 0.3 g/L. For the same compound, the “Urea (index of urine)” value (dose 50 mg/kg) was 457 ± 144 mmol/L, the “Urobilinogen (index of urine)” value (dose 50 mg/kg) was <16 Mkmol/l and the “pH (index of urine)” value (dose 50 mg/kg) was 6.1 ± 0.3. The “Bilirubin (index of urine)” value (dose 500 mg/kg) was <5 Mkmol/l, the “Glucose (index of urine)” value (dose 500 mg/kg) was <5 mmol/L and the “Ketone bodies (index of urine)” value (dose 500 mg/kg) was <1 mmol/L. For the same compound, the “Potassium (index of urine)” value (dose 500 mg/kg) was 6.24 ± 1.8 g/L, the “Protein (index of urine)” value (dose 500 mg/kg) was 0.76 ± 0.31 g/L and the “Sodium (index of urine)” value (dose 500 mg/kg) was 1.27 ± 0.3 g/L. The “Urea (index of urine)” value (dose 500 mg/kg) was 492 ± 187 mmol/L, the “Urobilinogen (index of urine)” value (dose 500 mg/kg) was <16 Mkmol/l and the “pH (index of urine)” value (dose 500 mg/kg) was 6.2 ± 0.2.
